Data: ChEMBL document CHEMBL3351431, “Synthesis and evaluation of C2-carbon-linked heterocyclic-5-hydroxy-6-oxo-dihydropyrimidine-4-carboxamides as HIV-1 integrase inhibitors” (Bioorg Med Chem Lett, 2015)
pEC50, pIC50: −log10 of the molar value.

Test system: not listed separately
Experiment: Tmax in Sprague-Dawley rat at 5 mg/kg, po
Format: ADME, organism-based
Parameters: dose 5 mg/kg, route oral
Settings: in vivo

SMILES	Tmax
Cn1c(C2CCOC2)nc(C(=O)NCc2ccc(F)cc2N2CCCCS2(=O)=O)c(O)c1=O (racemic)	37.8 min
Cn1c(C2CCOC2)nc(C(=O)NCc2ccc(F)cc2)c(O)c1=O (racemic)	40.2 min
CSC1COCC1c1nc(C(=O)NCc2ccc(F)cc2)c(O)c(=O)n1C (racemic)	100 min

Test system: not listed separately
Experiment: Volume of distribution at steady state in Sprague-Dawley rat at 1 mg/kg, iv
Format: ADME, organism-based
Parameters: dose 1 mg/kg, route intravenous
Settings: in vivo, read-out: Vdss

SMILES	Vd
COCCN1CCN(c2cc(F)ccc2CNC(=O)c2nc(C3CCOC3)n(C)c(=O)c2O)C1=O (racemic)	0.44 L/kg
Cn1c(C2CCOCC2)nc(C(=O)NCc2ccc(F)cc2)c(O)c1=O	0.12 L/kg
Cn1c(C2CCOC2)nc(C(=O)NCc2ccc(F)cc2N2CCCCS2(=O)=O)c(O)c1=O (racemic)	0.2 L/kg
Cn1c(C2CCOC2)nc(C(=O)NCc2ccc(F)cc2)c(O)c1=O (racemic)	0.14 L/kg
CSC1COCC1c1nc(C(=O)NCc2ccc(F)cc2)c(O)c(=O)n1C (racemic)	0.15 L/kg
Cn1c(C2CCOC2)nc(C(=O)NCc2ccc(F)cc2-n2cncn2)c(O)c1=O (racemic)	0.98 L/kg
Cc1ncnn1-c1cc(F)ccc1CNC(=O)c1nc(C2CCOC2)n(C)c(=O)c1O (racemic)	0.76 L/kg
Cn1c(C2CCOCC2)nc(C(=O)NCc2ccc(F)cc2N2CCN(C(C)(C)C)S2(=O)=O)c(O)c1=O	0.61 L/kg
Cn1c(C2CCOCC2)nc(C(=O)NCc2ccc(F)cc2S(C)(=O)=O)c(O)c1=O	0.13 L/kg
Cn1ncnc1-c1cc(F)ccc1CNC(=O)c1nc(C2CCOC2)n(C)c(=O)c1O (racemic)	0.36 L/kg
Cn1c(C2CCOC2)nc(C(=O)NCc2ccc(F)cc2N2CCN(C(C)(C)C)S2(=O)=O)c(O)c1=O (racemic)	0.36 L/kg

Test system: not listed separately
Experiment: Half life in Sprague-Dawley rat at 1 mg/kg, iv
Format: ADME, organism-based
Parameters: dose 1 mg/kg, route intravenous
Settings: in vivo

SMILES	half-life
COCCN1CCN(c2cc(F)ccc2CNC(=O)c2nc(C3CCOC3)n(C)c(=O)c2O)C1=O (racemic)	27.6 min
Cn1c(C2CCOCC2)nc(C(=O)NCc2ccc(F)cc2)c(O)c1=O	34.8 min
Cn1c(C2CCOC2)nc(C(=O)NCc2ccc(F)cc2N2CCCCS2(=O)=O)c(O)c1=O (racemic)	32.4 min
Cn1c(C2CCOC2)nc(C(=O)NCc2ccc(F)cc2)c(O)c1=O (racemic)	97.8 min
CSC1COCC1c1nc(C(=O)NCc2ccc(F)cc2)c(O)c(=O)n1C (racemic)	64.8 min
Cn1c(C2CCOC2)nc(C(=O)NCc2ccc(F)cc2-n2cncn2)c(O)c1=O (racemic)	25.2 min
Cc1ncnn1-c1cc(F)ccc1CNC(=O)c1nc(C2CCOC2)n(C)c(=O)c1O (racemic)	13.8 min
Cn1c(C2CCOCC2)nc(C(=O)NCc2ccc(F)cc2N2CCN(C(C)(C)C)S2(=O)=O)c(O)c1=O	13.2 min
Cn1c(C2CCOCC2)nc(C(=O)NCc2ccc(F)cc2S(C)(=O)=O)c(O)c1=O	34.8 min
Cn1ncnc1-c1cc(F)ccc1CNC(=O)c1nc(C2CCOC2)n(C)c(=O)c1O (racemic)	30 min
Cn1c(C2CCOC2)nc(C(=O)NCc2ccc(F)cc2N2CCN(C(C)(C)C)S2(=O)=O)c(O)c1=O (racemic)	14.4 min

Test system: Human immunodeficiency virus 1
Experiment: Antiviral activity against HIV1 infected in cell culture in presence of 10% FBS
Format: functional, organism-based
Settings: not given

SMILES	pEC50
Cn1c(C2(C)CCCO2)nc(C(=O)NCc2ccc(F)cc2)c(O)c1=O (racemic)	8.00
Cn1c(C2CCCCO2)nc(C(=O)NCc2ccc(F)cc2)c(O)c1=O (racemic)	7.31
COCCN1CCN(c2cc(F)ccc2CNC(=O)c2nc(C3CCOC3)n(C)c(=O)c2O)C1=O (racemic)	8.30
Cn1c(C2CCOCC2)nc(C(=O)NCc2ccc(F)cc2-n2cncn2)c(O)c1=O	8.00
Cc1cnnn1-c1cc(F)ccc1CNC(=O)c1nc(C2CCOC2)n(C)c(=O)c1O (racemic)	7.89
Cn1c(C2CCOCC2)nc(C(=O)NCc2ccc(F)cc2)c(O)c1=O	8.22
Cn1c(C2CCOC2)nc(C(=O)NCc2ccc(F)cc2N2CCCCS2(=O)=O)c(O)c1=O (racemic)	8.30
Cn1c(C2CCOC2)nc(C(=O)NCc2ccc(F)cc2)c(O)c1=O (racemic)	8.05
CSC1COCC1c1nc(C(=O)NCc2ccc(F)cc2)c(O)c(=O)n1C (racemic)	8.15
Cn1c(C2CCOC2)nc(C(=O)NCc2ccc(F)cc2-n2cncn2)c(O)c1=O (racemic)	8.15
Cc1ncnn1-c1cc(F)ccc1CNC(=O)c1nc(C2CCOC2)n(C)c(=O)c1O (racemic)	7.85
Cn1c(C2CCOCC2)nc(C(=O)NCc2ccc(F)cc2N2CCN(C(C)(C)C)S2(=O)=O)c(O)c1=O	8.70
Cn1c(C2CCOCC2)nc(C(=O)NCc2ccc(F)cc2S(C)(=O)=O)c(O)c1=O	8.22
Cn1ncnc1-c1cc(F)ccc1CNC(=O)c1nc(C2CCOC2)n(C)c(=O)c1O (racemic)	8.30
Cn1c(C2CCOC2)nc(C(=O)NCc2ccc(F)cc2N2CCN(C(C)(C)C)S2(=O)=O)c(O)c1=O (racemic)	8.70

Test system: not listed separately
Experiment: Clearance in Sprague-Dawley rat at 1 mg/kg, iv
Format: ADME, organism-based
Parameters: dose 1 mg/kg, route intravenous
Settings: in vivo

SMILES	clearance
COCCN1CCN(c2cc(F)ccc2CNC(=O)c2nc(C3CCOC3)n(C)c(=O)c2O)C1=O (racemic)	15 mL/min/kg
Cn1c(C2CCOCC2)nc(C(=O)NCc2ccc(F)cc2)c(O)c1=O	2.6 mL/min/kg
Cn1c(C2CCOC2)nc(C(=O)NCc2ccc(F)cc2N2CCCCS2(=O)=O)c(O)c1=O (racemic)	6 mL/min/kg
Cn1c(C2CCOC2)nc(C(=O)NCc2ccc(F)cc2)c(O)c1=O (racemic)	4.9 mL/min/kg
CSC1COCC1c1nc(C(=O)NCc2ccc(F)cc2)c(O)c(=O)n1C (racemic)	3.6 mL/min/kg
Cn1c(C2CCOC2)nc(C(=O)NCc2ccc(F)cc2-n2cncn2)c(O)c1=O (racemic)	47 mL/min/kg
Cc1ncnn1-c1cc(F)ccc1CNC(=O)c1nc(C2CCOC2)n(C)c(=O)c1O (racemic)	37 mL/min/kg
Cn1c(C2CCOCC2)nc(C(=O)NCc2ccc(F)cc2N2CCN(C(C)(C)C)S2(=O)=O)c(O)c1=O	41 mL/min/kg
Cn1c(C2CCOCC2)nc(C(=O)NCc2ccc(F)cc2S(C)(=O)=O)c(O)c1=O	3.9 mL/min/kg
Cn1ncnc1-c1cc(F)ccc1CNC(=O)c1nc(C2CCOC2)n(C)c(=O)c1O (racemic)	12 mL/min/kg
Cn1c(C2CCOC2)nc(C(=O)NCc2ccc(F)cc2N2CCN(C(C)(C)C)S2(=O)=O)c(O)c1=O (racemic)	31 mL/min/kg

Test system: not listed separately
Experiment: Oral bioavailability in Sprague-Dawley rat at 5 mg/kg
Format: ADME, organism-based
Settings: in vivo

SMILES	bioavailability
Cn1c(C2CCOC2)nc(C(=O)NCc2ccc(F)cc2N2CCCCS2(=O)=O)c(O)c1=O (racemic)	60%
Cn1c(C2CCOC2)nc(C(=O)NCc2ccc(F)cc2)c(O)c1=O (racemic)	68%
CSC1COCC1c1nc(C(=O)NCc2ccc(F)cc2)c(O)c(=O)n1C (racemic)	67%

Test system: not listed separately
Experiment: Cmax in Sprague-Dawley rat at 5 mg/kg, po
Format: ADME, organism-based
Parameters: dose 5 mg/kg, route oral
Settings: in vivo

SMILES	Cmax
Cn1c(C2CCOC2)nc(C(=O)NCc2ccc(F)cc2N2CCCCS2(=O)=O)c(O)c1=O (racemic)	3.51 µM
Cn1c(C2CCOC2)nc(C(=O)NCc2ccc(F)cc2)c(O)c1=O (racemic)	10.5 µM
CSC1COCC1c1nc(C(=O)NCc2ccc(F)cc2)c(O)c(=O)n1C (racemic)	8.04 µM

Test system: not listed separately
Experiment: AUC in Sprague-Dawley rat at 5 mg/kg, po
Format: ADME, organism-based
Parameters: dose 5 mg/kg, route oral
Settings: plasma

SMILES	AUC
Cn1c(C2CCOC2)nc(C(=O)NCc2ccc(F)cc2N2CCCCS2(=O)=O)c(O)c1=O (racemic)	12.3 µM·h
Cn1c(C2CCOC2)nc(C(=O)NCc2ccc(F)cc2)c(O)c1=O (racemic)	33.9 µM·h
CSC1COCC1c1nc(C(=O)NCc2ccc(F)cc2)c(O)c(=O)n1C (racemic)	39.5 µM·h

Test system: Human immunodeficiency virus 1
Experiment: Antiviral activity against HIV1 infected in cell culture in presence of 45 mg/ml human serum albumin and 10% FBS
Format: functional, organism-based
Settings: not given

SMILES	pEC50
Cn1c(C2(C)CCCO2)nc(C(=O)NCc2ccc(F)cc2)c(O)c1=O (racemic)	6.92
Cn1c(C2CCCCO2)nc(C(=O)NCc2ccc(F)cc2)c(O)c1=O (racemic)	6.52
COCCN1CCN(c2cc(F)ccc2CNC(=O)c2nc(C3CCOC3)n(C)c(=O)c2O)C1=O (racemic)	7.57
Cn1c(C2CCOCC2)nc(C(=O)NCc2ccc(F)cc2-n2cncn2)c(O)c1=O	7.74
Cc1cnnn1-c1cc(F)ccc1CNC(=O)c1nc(C2CCOC2)n(C)c(=O)c1O (racemic)	7.55
Cn1c(C2CCOCC2)nc(C(=O)NCc2ccc(F)cc2)c(O)c1=O	7.55
Cn1c(C2CCOC2)nc(C(=O)NCc2ccc(F)cc2N2CCCCS2(=O)=O)c(O)c1=O (racemic)	7.72
Cn1c(C2CCOC2)nc(C(=O)NCc2ccc(F)cc2)c(O)c1=O (racemic)	7.22
CSC1COCC1c1nc(C(=O)NCc2ccc(F)cc2)c(O)c(=O)n1C (racemic)	7.48
Cn1c(C2CCOC2)nc(C(=O)NCc2ccc(F)cc2-n2cncn2)c(O)c1=O (racemic)	7.74
Cc1ncnn1-c1cc(F)ccc1CNC(=O)c1nc(C2CCOC2)n(C)c(=O)c1O (racemic)	7.74
Cn1c(C2CCOCC2)nc(C(=O)NCc2ccc(F)cc2N2CCN(C(C)(C)C)S2(=O)=O)c(O)c1=O	8.15
Cn1c(C2CCOCC2)nc(C(=O)NCc2ccc(F)cc2S(C)(=O)=O)c(O)c1=O	7.89
Cn1ncnc1-c1cc(F)ccc1CNC(=O)c1nc(C2CCOC2)n(C)c(=O)c1O (racemic)	7.96
Cn1c(C2CCOC2)nc(C(=O)NCc2ccc(F)cc2N2CCN(C(C)(C)C)S2(=O)=O)c(O)c1=O (racemic)	7.66

Biological target: Human immunodeficiency virus type 1 integrase (Human immunodeficiency virus 1, UniProt Q7ZJM1)
Sequence (Q7ZJM1 whole entry): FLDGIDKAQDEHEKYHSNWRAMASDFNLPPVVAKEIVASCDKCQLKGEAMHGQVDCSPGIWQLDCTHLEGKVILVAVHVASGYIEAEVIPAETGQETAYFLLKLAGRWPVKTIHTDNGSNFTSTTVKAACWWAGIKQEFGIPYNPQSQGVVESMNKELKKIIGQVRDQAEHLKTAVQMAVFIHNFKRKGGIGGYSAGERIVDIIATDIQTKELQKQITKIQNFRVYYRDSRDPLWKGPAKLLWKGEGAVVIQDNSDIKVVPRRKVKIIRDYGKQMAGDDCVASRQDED
Experiment: Inhibition of HIV-1 integrase strand transfer activity
Settings: not given

SMILES	pIC50
Cn1c(C2(C)CCCO2)nc(C(=O)NCc2ccc(F)cc2)c(O)c1=O (racemic)	8.30
Cn1c(C2CCCCO2)nc(C(=O)NCc2ccc(F)cc2)c(O)c1=O (racemic)	8.00
COCCN1CCN(c2cc(F)ccc2CNC(=O)c2nc(C3CCOC3)n(C)c(=O)c2O)C1=O (racemic)	8.52
Cn1c(C2CCOCC2)nc(C(=O)NCc2ccc(F)cc2-n2cncn2)c(O)c1=O	8.22
Cc1cnnn1-c1cc(F)ccc1CNC(=O)c1nc(C2CCOC2)n(C)c(=O)c1O (racemic)	8.00
Cn1c(C2CCOCC2)nc(C(=O)NCc2ccc(F)cc2)c(O)c1=O	8.30
Cn1c(C2CCOC2)nc(C(=O)NCc2ccc(F)cc2N2CCCCS2(=O)=O)c(O)c1=O (racemic)	8.05
Cn1c(C2CCOC2)nc(C(=O)NCc2ccc(F)cc2)c(O)c1=O (racemic)	8.40
CSC1COCC1c1nc(C(=O)NCc2ccc(F)cc2)c(O)c(=O)n1C (racemic)	8.52
Cn1c(C2CCOC2)nc(C(=O)NCc2ccc(F)cc2-n2cncn2)c(O)c1=O (racemic)	8.40
Cc1ncnn1-c1cc(F)ccc1CNC(=O)c1nc(C2CCOC2)n(C)c(=O)c1O (racemic)	7.92
Cn1c(C2CCOCC2)nc(C(=O)NCc2ccc(F)cc2N2CCN(C(C)(C)C)S2(=O)=O)c(O)c1=O	7.77
Cn1c(C2CCOCC2)nc(C(=O)NCc2ccc(F)cc2S(C)(=O)=O)c(O)c1=O	8.10
Cn1ncnc1-c1cc(F)ccc1CNC(=O)c1nc(C2CCOC2)n(C)c(=O)c1O (racemic)	8.22
Cn1c(C2CCOC2)nc(C(=O)NCc2ccc(F)cc2N2CCN(C(C)(C)C)S2(=O)=O)c(O)c1=O (racemic)	7.80
